# Reference: US5350864A, “Aminoalkylcarbamyl derivatives of forskolin as intermediates for the synthesis of useful forskolin derivatives” (The United States of America as represented by the …, priority 1990, dated 1994)
# “Also recorded” adds a separate entry of the source. Where two headings read alike, the source gives them in different places.
# Experiments:
# [1] = tested on: adenylate cyclase; settings: literature; cited from earlier work
# [2] = mildly basic conditions; literature; cited from earlier work
# [3] = tested on: adenylate cyclase; settings: literature; cited from earlier work; remark: listed apart in the source
# [4] = tested on: bovine brain adenylate cyclase; assay: Activation of bovine brain adenylate cyclase; type: biochemical; settings: relative to forskolin
# [5] = Water solubility; type: physicochemical; settings: relative to forskolin
# [6] = target: T1, glucose transporter (Homo sapiens, UniProt P11166); assay: Filtration binding assay, ^125 I-labelled derivative 8 (7-^125 I-HPP-Fsk) to human red blood cell membranes
# T1 construct: Crude membranes from human red blood cells; from tissue; host or cells: human red blood cells, membranes
# T1 sequence (P11166 1-492): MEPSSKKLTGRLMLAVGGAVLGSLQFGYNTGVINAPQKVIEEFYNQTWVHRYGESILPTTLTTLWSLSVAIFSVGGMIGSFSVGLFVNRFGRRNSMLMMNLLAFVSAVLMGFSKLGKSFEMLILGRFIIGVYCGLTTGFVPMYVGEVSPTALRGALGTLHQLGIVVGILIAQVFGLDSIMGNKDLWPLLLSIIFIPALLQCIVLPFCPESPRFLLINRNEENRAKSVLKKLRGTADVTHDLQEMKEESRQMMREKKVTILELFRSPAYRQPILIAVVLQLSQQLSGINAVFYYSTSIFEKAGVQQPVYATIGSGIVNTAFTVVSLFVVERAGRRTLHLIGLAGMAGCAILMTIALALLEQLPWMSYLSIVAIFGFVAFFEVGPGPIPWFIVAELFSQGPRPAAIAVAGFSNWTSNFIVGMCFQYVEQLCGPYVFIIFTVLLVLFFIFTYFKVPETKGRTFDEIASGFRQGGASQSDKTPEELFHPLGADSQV
# Description: Binding of 7-^125 IHPP-Fsk to Membranes--Crude membranes from human red blood cells were incubated for 60 minutes at 20° C. with 20,000 cpm of 7-^125 IHPP-Fsk. […] The incubations were carried out at 20° C. for 60 minutes in 12×75 glass test tubes in a total volume of 0.4 mL 50 mM Tris-HCl buffer, pH 7.4. The assay was terminated by the addition of 4 mL of cold Tris-HCl buffer to the tubes at rapid filtration over Whatman GF/C filters using a Brandel cell harvester. The assay was terminated as described above and the filters counted in a gamma counter. The nonspecific binding was calculated as the amount of label not displaced by 20 μM forskolin.
# [7] = tested on: adenylate cyclase; assay: Filtration binding assay, ^125 I-labelled derivative 19 (6-^125 I-HPP-Fsk) to bovine brain membranes; settings: bovine brain membranes, 20° C., 60 min
# Description: Derivative 19 (6-^125 I-HPP-Fsk) was used to develop a binding assay for adenylate cyclase (Example 4). […] Therefore, a filtration assay can be used to separate the bound from free ligand and determine the amount of high affinity binding. […] Analogs of forskolin that activate adenylate cyclase inhibit the binding of 6-^125 I-HPP-Fsk to membranes. The ability of an agent to inhibit 6-^125 I-HPP-Fsk binding to membranes is therefore indicative of its ability to stimulate adenylate cyclase.
# Binding of 6-^125 I-HPP-Fsk to Membranes--Crude membranes from bovine brain were incubated for 60 minutes at […] 20° C. with 20,000 cpm of 6-^125 I-HPP-Fsk. Binding equilibrium was reached by 45 minutes and was constant for at least 2 hours (data not shown). The incubations were carried out at 20° C. for 60 minutes in 12×75 glass test tubes in a total volume of 0.4 mL […] Tris-HCl buffer, pH 7.4. The membranes (0.40 mg/tube) were incubated in the presence of 5 mM MgCl2 and 10 mM NaF. The assay was terminated by the addition of 5 mL of cold Tris-HCl buffer to the tubes and rapid filtration over Whatman GF/C filters using a Brandel cell harvester. The assay was terminated as described above and the filters counted in a gamma counter. The nonspecific binding was calculated as the amount of label not displaced by 20 uM forskolin. The non specific binding was about 20% of the total bound.
# [8] = target: T2, glucose transporter (Homo sapiens, UniProt P11169); assay: Binding of 7-^125 I-HPP-Fsk to human platelets
# T2 construct: other tissues including bovine brain, rat heart, rat muscle, and human platelets; from tissue; host or cells: human platelets
# T2 sequence (P11169 1-496): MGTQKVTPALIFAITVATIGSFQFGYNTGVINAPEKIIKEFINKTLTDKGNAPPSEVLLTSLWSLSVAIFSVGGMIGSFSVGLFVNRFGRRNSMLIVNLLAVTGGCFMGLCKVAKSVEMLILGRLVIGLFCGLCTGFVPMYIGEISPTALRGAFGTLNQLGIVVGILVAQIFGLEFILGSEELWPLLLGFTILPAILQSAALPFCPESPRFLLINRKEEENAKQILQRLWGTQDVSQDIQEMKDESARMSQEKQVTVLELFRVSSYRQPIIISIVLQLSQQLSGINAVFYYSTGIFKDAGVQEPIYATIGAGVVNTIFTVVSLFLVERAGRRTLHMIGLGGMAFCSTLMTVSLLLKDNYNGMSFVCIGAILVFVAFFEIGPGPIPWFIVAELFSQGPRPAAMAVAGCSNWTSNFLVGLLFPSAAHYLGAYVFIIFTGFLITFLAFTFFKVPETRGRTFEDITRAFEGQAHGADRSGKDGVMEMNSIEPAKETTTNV
# Description: (§1) 7-^125 I-HPP-Fsk also binds with high affinity to other tissues including bovine brain, rat heart, rat muscle, and human platelets. The binding of 7-^125 I-HPP-Fsk to these tissues is inhibited by D-glucose and cytochalasin B. Therefore, 7-^125 I-HPP-Fsk binds with high affinity to the glucose transporter in diverse tissues.
# [9] = tested on: glucose transporter; assay: Binding of 7-^125 I-HPP-Fsk to bovine brain
# Description: as §1
# [10] = target: T1, glucose transporter; assay: Photolabelling of human red blood cell membranes, SDS gel electrophoresis; type: binding
# Description: Derivative 9 (7-AIPPS-Fsk) is incubated with human red blood cell membranes, photolyzed, and then the radioactive proteins were analyzed by SDS gel electrophoresis.
# [11] = tested on: glucose transporter; assay: Binding of 7-^125 I-HPP-Fsk to rat heart
# Description: as §1
# [12] = tested on: glucose transporter; assay: Binding of 7-^125 I-HPP-Fsk to rat muscle
# Description: as §1
# [13] = tested on: adenylate cyclase; assay: Photolabelling of bovine brain membranes, SDS gel electrophoresis; type: binding
# Description: (§2) Derivative 20 (6-AIPPS-Fsk) is incubated with partially purified preparations of bovine brain adenylate cyclase, photolyzed, and then the radioactive proteins are analyzed by SDS gel electrophoresis. […] 6-AIPPS-Fsk can also label adenylate cyclase in crude membranes. 6-AIPPS-Fsk is incubated with bovine brain membranes, photolyzed, and the radioactive proteins are analyzed by SDS gel electrophoresis.
# [14] = tested on: adenylate cyclase; assay: Photolabelling of partially purified bovine brain adenylate cyclase, SDS gel electrophoresis; type: binding
# Description: as §2
# [15] = target: P-glycoprotein (Homo sapiens, UniProt P08183)
# Sequence of P-glycoprotein (P08183 whole entry): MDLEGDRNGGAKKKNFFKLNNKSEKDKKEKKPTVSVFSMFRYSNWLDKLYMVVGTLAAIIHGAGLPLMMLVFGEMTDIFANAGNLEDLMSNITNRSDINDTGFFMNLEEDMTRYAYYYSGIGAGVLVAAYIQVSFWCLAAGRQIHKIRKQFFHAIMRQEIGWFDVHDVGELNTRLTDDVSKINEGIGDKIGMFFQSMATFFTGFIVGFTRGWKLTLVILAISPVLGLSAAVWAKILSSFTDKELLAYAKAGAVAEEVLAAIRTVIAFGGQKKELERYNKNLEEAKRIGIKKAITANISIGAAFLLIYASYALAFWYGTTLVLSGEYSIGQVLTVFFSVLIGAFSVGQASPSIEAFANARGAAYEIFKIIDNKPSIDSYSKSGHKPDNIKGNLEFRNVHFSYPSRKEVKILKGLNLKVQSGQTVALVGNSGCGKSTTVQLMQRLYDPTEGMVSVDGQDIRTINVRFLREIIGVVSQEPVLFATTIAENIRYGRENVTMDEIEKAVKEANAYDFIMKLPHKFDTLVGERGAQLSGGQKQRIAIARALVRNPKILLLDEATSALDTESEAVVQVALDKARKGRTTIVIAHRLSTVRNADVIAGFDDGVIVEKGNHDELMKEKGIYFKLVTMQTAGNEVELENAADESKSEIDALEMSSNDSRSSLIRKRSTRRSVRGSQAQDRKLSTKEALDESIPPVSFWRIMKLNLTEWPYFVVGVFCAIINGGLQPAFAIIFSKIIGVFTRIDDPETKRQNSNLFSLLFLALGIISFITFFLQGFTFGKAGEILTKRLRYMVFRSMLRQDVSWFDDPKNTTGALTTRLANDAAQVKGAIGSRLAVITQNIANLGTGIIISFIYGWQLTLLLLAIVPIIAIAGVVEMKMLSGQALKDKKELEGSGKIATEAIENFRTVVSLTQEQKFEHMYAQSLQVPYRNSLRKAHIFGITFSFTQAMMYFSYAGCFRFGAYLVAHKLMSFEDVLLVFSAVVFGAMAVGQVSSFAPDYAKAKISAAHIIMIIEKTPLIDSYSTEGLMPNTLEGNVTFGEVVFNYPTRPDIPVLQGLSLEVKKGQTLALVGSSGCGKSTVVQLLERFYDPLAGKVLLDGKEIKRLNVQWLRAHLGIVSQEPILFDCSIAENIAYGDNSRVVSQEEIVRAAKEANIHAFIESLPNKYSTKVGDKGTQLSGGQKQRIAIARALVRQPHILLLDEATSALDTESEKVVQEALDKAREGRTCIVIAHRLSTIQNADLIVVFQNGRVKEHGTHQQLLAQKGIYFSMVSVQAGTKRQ
compound,measurement,setting,value
C=C[C@@]1(C)CC(=O)[C@]2(O)[C@@]3(C)[C@@H](O)CCC(C)(C)[C@@H]3[C@H](OC(C)=O)[C@H](O)[C@@]2(C)O1 [6-acetyl-7-desacetylforskolin],activation of adenylate cyclase,[1],less potent than forskolin
C=C[C@@]1(C)CC(=O)[C@]2(O)[C@@]3(C)[C@@H](O)CCC(C)(C)[C@@H]3[C@H](O)[C@H](OC(=O)CCl)[C@@]2(C)O1 [7-desacetyl-7-chloroacetylforskolin],susceptibility to hydrolysis and rearrangement,[2],susceptible to hydrolysis and rearrangement under mildly basic conditions
same,block of forskolin binding site,[3],block the forskolin binding site on adenylate cyclase
C=C[C@@]1(C)CC(=O)[C@]2(O)[C@@]3(C)[C@@H](O)CCC(C)(C)[C@@H]3[C@H](O)[C@H](OC(=O)CC)[C@@]2(C)O1 [7-desacetyl-7-propionylforskolin],activation of adenylate cyclase,[1],active at adenylate cyclase
C=C[C@@]1(C)CC(=O)[C@]2(O)[C@@]3(C)[C@@H](O)CCC(C)(C)[C@@H]3[C@H](O)[C@H](O)[C@@]2(C)O1 [7-desacetylforskolin],activation of adenylate cyclase,[1],less potent than forskolin
C=C[C@@]1(C)CC(=O)[C@]2(O)[C@@]3(C)[C@@H](O)CCC(C)(C)[C@@H]3[C@H](O)[C@H](OC(=O)CBr)[C@@]2(C)O1 [7-descacetyl-7-bromoacetylforskolin],susceptibility to hydrolysis and rearrangement,[2],susceptible to hydrolysis and rearrangement under mildly basic conditions
same,block of forskolin binding site,[3],block the forskolin binding site on adenylate cyclase
C=C[C@@]1(C)CC(O)[C@]2(O)[C@@]3(C)[C@@H](O)CCC(C)(C)[C@@H]3[C@H](O)[C@H](OC(C)=O)[C@@]2(C)O1 (stereo partly drawn) [11β-hydroxyforskolin],activation of adenylate cyclase,[1],less potent than forskolin
"CC[C@@]1(C)CC(=O)[C@]2(O)[C@@]3(C)[C@@H](O)CCC(C)(C)[C@@H]3[C@H](O)[C@H](OC(C)=O)[C@@]2(C)O1 [14,15-dihydroforskolin]",activation of adenylate cyclase,[1],less potent than forskolin
"C=C[C@@]1(C)CC(=O)[C@]2(O)[C@@]3(C)[C@@H](O)CCC(C)(C)[C@@H]3[C@H](OC(=O)NCCN)[C@H](OC(C)=O)[C@@]2(C)O1 [Compound 4, 6-aminoethylcarbamylforskolin]",extent of stimulation of adenylate cyclase,[4],stimulate adenylate cyclase to a greater extent than forskolin
same,water solubility,[5],enhanced water solubility
OC[C@H]1OC(O)[C@H](O)[C@@H](O)[C@@H]1O (stereo partly drawn) [D-glucose],inhibition of 7-^125 I-HPP-Fsk binding,[6],inhibited; also recorded: inhibition of binding
same,inhibition of 6-^125 I-HPP-Fsk binding,[7],not inhibited
same,inhibition of 7-^125 I-HPP-Fsk binding,[8],inhibited
same,inhibition of 7-^125 I-HPP-Fsk binding,[9],inhibited
same,inhibition of labelling by 7-AIPPS-Fsk,[10],inhibited
same,inhibition of 7-^125 I-HPP-Fsk binding,[11],inhibited
same,inhibition of 7-^125 I-HPP-Fsk binding,[12],inhibited
C=C[C@@]1(C)CC(=O)[C@]2(O)[C@@]3(C)[C@@H](O)CCC(C)(C)[C@@H]3[C@H](O)[C@H](OC(=O)NCCNC(=O)CCc3ccc(O)c([125I])c3)[C@@]2(C)O1 [Derivative 8],time binding was constant,[6]; 20° C.,at least 2 hours
same,time to binding equilibrium,[6]; 20° C.,≤ 45 min
same,binding affinity / selectivity,"[6]; human red blood cell glucose transporter, listed as 7-^125 I-HPP-Fsk",binds to the human red blood cell glucose transporter with high affinity; also recorded: will not detect adenylate cyclase
same,nonspecific binding (of total bound),[6]; label not displaced by 20 μM forskolin,about 20%
same,Kd,"[6]; membranes from human red blood cells, read-out: affinity of 7-^125 I-HPP-Fsk",30 nM
same,binding affinity,[8],high affinity
same,binding affinity,[9],high affinity
same,binding affinity,[11],high affinity
same,binding affinity,[12],high affinity
C=C[C@@]1(C)CC(=O)[C@]2(O)[C@@]3(C)[C@@H](O)CCC(C)(C)[C@@H]3[C@H](O)[C@H](OC(=O)NCCNC(=O)CCc3ccc(N=[N+]=[N-])c([125I])c3)[C@@]2(C)O1 [Derivative 9],photolabelling of adenylate cyclase,[13],less efficient at labelling the adenylate cyclase than the 6-AIPPS-Fsk
same,photolabelling of glucose transporter,[10]; listed as 7-AIPPS-Fsk,labels the glucose transporter; also recorded: more potent at labelling the glucose transporter in human red blood cell membranes than 6-AIPPS-Fsk
C=C[C@@]1(C)CC(=O)[C@]2(O)[C@@]3(C)[C@@H](O)CCC(C)(C)[C@@H]3[C@H](OC(=O)NCCNC(=O)CCc3ccc(N=[N+]=[N-])c([125I])c3)[C@H](OC(C)=O)[C@@]2(C)O1 [Derivative 20],photolabelling of adenylate cyclase,[13],labels the adenylate cyclase in bovine brain membranes
same,photolabelling of adenylate cyclase,[14],covalently incorporated into the adenylate cyclase
same,photolabelling of P-glycoprotein,[15],labelled
C=C[C@@]1(C)CC(=O)[C@]2(O)[C@@]3(C)[C@@H](O)CCC(C)(C)[C@@H]3[C@H](OC(=O)NCCNC(=O)CCc3ccc(O)cc3)[C@H](OC(C)=O)[C@@]2(C)O1 [Derivative 21],inhibition of labelling by 6-AIPPS-Fsk,[15],more potent at inhibiting the labelling by 6-AIPPS-Fsk than forskolin
OC[C@@H]1OC(O)[C@@H](O)[C@H](O)[C@H]1O (stereo partly drawn) [L-glucose],inhibition of 7-^125 I-HPP-Fsk binding,[6],not L-glucose
O=C(CCc1ccc(O)cc1)c1c(O)cc(O)cc1O[C@@H]1O[C@H](CO)[C@@H](O)[C@H](O)[C@H]1O [phloridzin],inhibition of 7-^125 I-HPP-Fsk binding,[6]; human red blood cell membranes,relatively potent
